Test results taken from patent publication US20260132132A1, “3A,4,5,6-TETRAHYDRO-1 H-PYRAZOLO[3,4-C]PYRIDIN-7(7AH)-ONE DERIVATIVES AS FACTOR XIIA INHIBITORS” (KALVISTA PHARMACEUTICALS LIMITED, priority 2022, published 2026).

Assays:
[1] = molecular target: T1, Human Factor XIIa (hFXIIa) (Homo sapiens, UniProt P00748); experiment: Determination of Human Factor XIIa (hFXIIa) inhibition, fluorogenic substrate IC50 assay; assay type: biochemical; settings: fluorogenic substrate H-DPro-Phe-Arg-AFC at Km, 25° C., read-out: Human FXIIa IC50
T1 construct: purchased Enzyme Research Laboratories
T1 sequence (P00748 373-615 limits assumed): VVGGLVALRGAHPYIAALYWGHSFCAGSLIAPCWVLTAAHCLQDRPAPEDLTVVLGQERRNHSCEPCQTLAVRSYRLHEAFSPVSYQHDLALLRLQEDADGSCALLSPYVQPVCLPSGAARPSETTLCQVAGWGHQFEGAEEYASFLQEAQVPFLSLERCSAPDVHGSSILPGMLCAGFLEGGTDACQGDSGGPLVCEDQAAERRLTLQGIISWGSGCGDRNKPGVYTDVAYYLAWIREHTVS
T1 sequence (P00748 20-372 partner limits assumed): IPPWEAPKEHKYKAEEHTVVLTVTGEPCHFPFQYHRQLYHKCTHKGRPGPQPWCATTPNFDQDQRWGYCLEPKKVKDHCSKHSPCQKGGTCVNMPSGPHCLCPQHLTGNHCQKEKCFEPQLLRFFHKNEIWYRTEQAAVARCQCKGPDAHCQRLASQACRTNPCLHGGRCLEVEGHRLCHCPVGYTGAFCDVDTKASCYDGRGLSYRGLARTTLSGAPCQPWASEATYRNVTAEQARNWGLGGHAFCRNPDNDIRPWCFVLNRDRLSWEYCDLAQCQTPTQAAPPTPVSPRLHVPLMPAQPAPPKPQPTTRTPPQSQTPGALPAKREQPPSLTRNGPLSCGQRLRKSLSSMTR
Experimental: Determination of Human Factor XIIa (hFXIIa) inhibition
The Km for the cleavage of the substrate by hFXIIa was determined by standard transformation of the Michaelis-Menten equation, with subsequent inhibition assays performed at substrate Km concentration.

FXa = FXa (Homo sapiens, UniProt P00742); experiment: Related protease inhibition: FXa, fluorogenic substrate; assay type: biochemical; settings: fluorogenic substrate at Km, 25° C.; H1-H3 = % activity at 40 μM
Experimental: Human serine protease enzyme Plasma Kallikrein, KLK1, FXa, Plasmin, Thrombin and Trypsin were assayed for enzymatic activity using an appropriate fluorogenic substrate at Km concentration, FXIa at fixed substrate concentration of 100 μM and various concentrations of the test compound.

Chain of FXa (P00742 235-488 limits assumed): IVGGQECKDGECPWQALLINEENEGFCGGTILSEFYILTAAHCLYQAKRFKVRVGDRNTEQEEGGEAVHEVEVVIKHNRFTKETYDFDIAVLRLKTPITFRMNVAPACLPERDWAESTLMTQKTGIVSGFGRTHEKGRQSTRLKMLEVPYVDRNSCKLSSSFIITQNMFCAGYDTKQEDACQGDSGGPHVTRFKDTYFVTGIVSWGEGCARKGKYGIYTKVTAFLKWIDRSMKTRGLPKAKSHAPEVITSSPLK
Chain of FXa (P00742 41-179 partner limits assumed): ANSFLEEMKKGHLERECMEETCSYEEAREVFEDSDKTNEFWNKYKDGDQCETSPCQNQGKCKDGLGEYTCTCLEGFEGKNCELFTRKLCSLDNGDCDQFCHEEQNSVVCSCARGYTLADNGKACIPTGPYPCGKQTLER

| IC50 [1] [nM] | IC50 (FXa) [µM] | Structure (SMILES) |
| --- | --- | --- |
| 10 to 100 | 3 to 10 | CCN1CCc2ccc(N3CCc4c(C(=O)NCc5cc(C6CC6)n[nH]5)nn(-c5cccc(Cl)c5)c4C3=O)cc2C1 [Example 1150, 1-(3-chlorophenyl)-N-((3-cyclopropyl-1H-pyrazol-5-yl)methyl)-6-(2-ethyl-1,2,3,4-tetrahydroisoquinolin-7-yl)-7-oxo-4,5,6,7-tetrahydro-1H-pyrazolo[3,4-c]pyridine-3-carboxamide] |
| 300 to 1000 | 10 to 40 | CCN1Cc2cc(N3CCc4c(C(=O)NCC5CC5)nn(-c5cccc(Cl)c5)c4C3=O)ccc2[C@@H](C)C1 [Example 1153, (R)-1-(3-chlorophenyl)-N-(cyclopropylmethyl)-6-(2-ethyl-4-methyl-1,2,3,4-tetrahydroisoquinolin-7-yl)-7-oxo-4,5,6,7-tetrahydro-1H-pyrazolo[3,4-c]pyridine-3-carboxamide] |
| 300 to 1000 | 3 to 10 | CN1CCc2ccc(N3CCc4c(C5=NCCO5)nn(-c5cccc(Cl)c5)c4C3=O)cc2C1=O [Example 1353, 7-(1-(3-Chlorophenyl)-3-(4,5-dihydrooxazol-2-yl)-7-oxo-1,4,5,7-tetrahydro-6H-pyrazolo[3,4-c]pyridin-6-yl)-2-methyl-3,4-dihydroisoquinolin-1 (2H)-one] |
| 3000 to 10000 | > 100 | O=C(c1nn(-c2cccc(Cl)c2)c2c1CCN(c1cccc(CN3CCCCC3)c1)C2=O)N1CCCC1 [Example 1009, 1-(3-chlorophenyl)-6-(3-(piperidin-1-ylmethyl)phenyl)-3-(pyrrolidine-1-carbonyl)-1,4,5,6-tetrahydro-7H-pyrazolo[3,4-c]pyridin-7-one] |
| 100 to 300 | > 40 | O=C(NCc1cc(C2CC2)n[nH]1)c1nn(-c2cccc(Cl)c2)c2c1CCN(c1cccc(CN3CCCCC3)c1)C2=O [Example 1237, 1-(3-chlorophenyl)-N-((3-cyclopropyl-1H-pyrazol-5-yl)methyl)-7-oxo-6-(3-(piperidin-1-ylmethyl)phenyl)-4,5,6,7-tetrahydro-1H-pyrazolo[3,4-c]pyridine-3-carboxamide] |
| 10 to 100 | 10 to 40 | Cc1cn(C)nc1CNC(=O)c1nn(-c2cccc(Cl)c2)c2c(=O)n(-c3ccc4c(c3)CN(CCO)CC4)c(C)nc12 [Example 3005, 1-(3-Chlorophenyl)-N-[(1,4-dimethylpyrazol-3-yl)methyl]-6-[2-(2-hydroxyethyl)-3,4-dihydro-1H-isoquinolin-7-yl]-5-methyl-7-oxo-pyrazolo[4,3-d]pyrimidine-3-carboxamide] |
| 300 to 1000 | 10 to 40 | CCNC(=O)c1nn(-c2cccc(Cl)c2)c2c(=O)n(-c3ccc4c(c3)C(=O)N(C)CC4)c(C)nc12 [Example 3022, 1-(3-chlorophenyl)-N-ethyl-5-methyl-6-(2-methyl-1-oxo-1,2,3,4-tetrahydroisoquinolin-7-yl)-7-oxo-6,7-dihydro-1H-pyrazolo[4,3-d]pyrimidine-3-carboxamide] |
| 300 to 1000 | > 40 | Cc1ncc(CNC(=O)c2nn(-c3cccc(Cl)c3)c3c2CCN(c2ccc4c(c2)C(=O)N(C)CC4)C3=O)o1 [Example 1194, 1-(3-chlorophenyl)-6-(2-methyl-1-oxo-1,2,3,4-tetrahydroisoquinolin-7-yl)-N-((2-methyloxazol-5-yl)methyl)-7-oxo-4,5,6,7-tetrahydro-1H-pyrazolo[3,4-c]pyridine-3-carboxamide] |
| 300 to 1000 | > 40 | CN1CCc2ccc(N3CCc4c(C(=O)NCC5CC5)nn(-c5cccc(C#N)c5)c4C3=O)cc2C1=O [Example 2005, 1-(3-cyanophenyl)-N-(cyclopropylmethyl)-6-(2-methyl-1-oxo-1,2,3,4-tetrahydroisoquinolin-7-yl)-7-oxo-4,5,6,7-tetrahydro-1H-pyrazolo[3,4-c]pyridine-3-carboxamide] |
| 300 to 1000 | 10 to 40 | CN1CCc2ccc(N3CCc4c(C(=O)NCC5CC5)nn(-c5cccc(Cl)c5)c4C3=O)cc2C1 [Example 1012, 1-(3-chlorophenyl)-N-(cyclopropylmethyl)-6-(2-methyl-1,2,3,4-tetrahydroisoquinolin-7-yl)-7-oxo-4,5,6,7-tetrahydro-1H-pyrazolo[3,4-c]pyridine-3-carboxamide] |
| 300 to 1000 | > 40 | CN1CCc2ccc(N3CCc4c(C(=O)N[C@H]5CCOC5)nn(-c5cccc(Cl)c5)c4C3=O)cc2C1=O [Example 1336, (S)-1-(3-chlorophenyl)-6-(2-methyl-1-oxo-1,2,3,4-tetrahydroisoquinolin-7-yl)-7-oxo-N-(tetrahydrofuran-3-yl)-4,5,6,7-tetrahydro-1H-pyrazolo[3,4-c]pyridine-3-carboxamide] |
| 3000 to 10000 | 10 to 40 | CCNC(=O)c1nn(-c2cccc(Cl)c2)c2c1CCN(c1cccc(N3CCCS3(=O)=O)c1)C2=O [Example 1366, 1-(3-chlorophenyl)-6-(3-(1,1-dioxidoisothiazolidin-2-yl)phenyl)-N-ethyl-7-oxo-4,5,6,7-tetrahydro-1H-pyrazolo[3,4-c]pyridine-3-carboxamide] |
| 3000 to 10000 | > 40 | CN1CCc2ccc(N3CCc4c(C(=O)NS(C)(=O)=O)nn(-c5cccc(Cl)c5)c4C3=O)cc2C1=O [Example 1345, 1-(3-chlorophenyl)-6-(2-methyl-1-oxo-1,2,3,4-tetrahydroisoquinolin-7-yl)-N-(methylsulfonyl)-7-oxo-4,5,6,7-tetrahydro-1H-pyrazolo[3,4-c]pyridine-3-carboxamide] |
| 100 to 300 | > 40 | O=C(NCc1cccnn1)c1nn(-c2cccc(Cl)c2)c2c1CCN(c1ccc3c(c1)CN(CCO)CC3)C2=O [Example 1204, 1-(3-chlorophenyl)-6-(2-(2-hydroxyethyl)-1,2,3,4-tetrahydroisoquinolin-7-yl)-7-oxo-N-(pyridazin-3-ylmethyl)-4,5,6,7-tetrahydro-1H-pyrazolo[3,4-c]pyridine-3-carboxamide] |
| 10 to 100 | 3 to 10 | COc1cncc(CNC(=O)c2nn(-c3cccc(Cl)c3)c3c2CCN(c2ccc4c(c2)CN(CCO)CC4)C3=O)c1 [Example 1141, 1-(3-chlorophenyl)-6-(2-(2-hydroxyethyl)-1,2,3,4-tetrahydroisoquinolin-7-yl)-N-((5-methoxypyridin-3-yl)methyl)-7-oxo-4,5,6,7-tetrahydro-1H-pyrazolo[3,4-c]pyridine-3-carboxamide] |
| 300 to 1000 | 3 to 10 | Cc1cn(C)nc1C(=O)NCc1nn(-c2cccc(Cl)c2)c2c(=O)n(-c3ccc4c(c3)CN(CCO)CC4)c(C)nc12 [Example 3009, N-[[1-(3-Chlorophenyl)-6-[2-(2-hydroxyethyl)-3,4-dihydro-1H-isoquinolin-7-yl]-5-methyl-7-oxopyrazolo[4,3-d]pyrimidin-3-yl]methyl]-1,4-dimethylpyrazole-3-carboxamide] |
| 10000 to 40000 | > 40 | Cc1cc(CNC(=O)c2nn(-c3cccc(Cl)c3)c3c2CCN(c2ccc4c(c2)CCN(C)C4=O)C3=O)nn1C [Example 1205, 1-(3-chlorophenyl)-N-((1,5-dimethyl-1H-pyrazol-3-yl)methyl)-6-(2-methyl-1-oxo-1,2,3,4-tetrahydroisoquinolin-6-yl)-7-oxo-4,5,6,7-tetrahydro-1H-pyrazolo[3,4-c]pyridine-3-carboxamide] |
| 10 to 100 | 3 to 10 | Cc1cccc(-n2nc(C(=O)NCc3cnccc3C)c3c2C(=O)N(c2ccc4c(c2)CN(CCO)CC4)CC3)c1 [Example 2008, 6-(2-(2-hydroxyethyl)-1,2,3,4-tetrahydroisoquinolin-7-yl)-N-((4-methylpyridin-3-yl)methyl)-7-oxo-1-(m-tolyl)-4,5,6,7-tetrahydro-1H-pyrazolo[3,4-c]pyridine-3-carboxamide] |
| 1000 to 3000 | > 40 | Cc1cc(CNC(=O)c2nn(-c3cccc(Cl)c3)c3c2CCN(c2ccc4c(c2)C(=O)N(C)C4)C3=O)nn1C [Example 1206, 1-(3-chlorophenyl)-N-((1,5-dimethyl-1H-pyrazol-3-yl)methyl)-6-(2-methyl-3-oxoisoindolin-5-yl)-7-oxo-4,5,6,7-tetrahydro-1H-pyrazolo[3,4-c]pyridine-3-carboxamide] |
| 300 to 1000 | 10 to 40 | CCNC(=O)c1nn(-c2cccc(Cl)c2)c2c1CCN(c1cccc(N3C(=O)CC4CC43)c1)C2=O (stereo not drawn) [Example 1367, 1-(3-Chlorophenyl)-N-ethyl-7-oxo-6-(3-(3-oxo-2-azabicyclo[3.1.0]hexan-2-yl)phenyl)-4,5,6,7-tetrahydro-1H-pyrazolo[3,4-c]pyridine-3-carboxamide] |
| 3000 to 10000 | 10 to 40 | CCNC(=O)c1nn(-c2cc(C)ccn2)c2c1CCN(c1ccc3c(c1)C(=O)N(C)CC3)C2=O [Example 2035, N-ethyl-6-(2-methyl-1-oxo-1,2,3,4-tetrahydroisoquinolin-7-yl)-1-(4-methylpyridin-2-yl)-7-oxo-4,5,6,7-tetrahydro-1H-pyrazolo[3,4-c]pyridine-3-carboxamide] |
